Assay results: US9388137B2, “Quaternized amines as sodium channel blockers” (Purdue Pharma L.P., priority 2011, dated 2016)

Legend:
human Nav1.7 = human Nav1.7 (Homo sapiens (Human), UniProt Q15858); assay: FLIPR sodium dye assay for sodium channel blocking activity; assay type: cell-based; settings: recombinant Nav1.7/HEK293 cells
hNav1.7 = hNav1.7 (Homo sapiens (Human), UniProt Q15858); assay: Electrophysiology (EP) assay, whole-cell patch clamp; assay type: cell-based; settings: hNav1.7 HEK-293 cells
hNav1.7, sequence (Q15858 other isoform, or with tags, fused parts or gaps): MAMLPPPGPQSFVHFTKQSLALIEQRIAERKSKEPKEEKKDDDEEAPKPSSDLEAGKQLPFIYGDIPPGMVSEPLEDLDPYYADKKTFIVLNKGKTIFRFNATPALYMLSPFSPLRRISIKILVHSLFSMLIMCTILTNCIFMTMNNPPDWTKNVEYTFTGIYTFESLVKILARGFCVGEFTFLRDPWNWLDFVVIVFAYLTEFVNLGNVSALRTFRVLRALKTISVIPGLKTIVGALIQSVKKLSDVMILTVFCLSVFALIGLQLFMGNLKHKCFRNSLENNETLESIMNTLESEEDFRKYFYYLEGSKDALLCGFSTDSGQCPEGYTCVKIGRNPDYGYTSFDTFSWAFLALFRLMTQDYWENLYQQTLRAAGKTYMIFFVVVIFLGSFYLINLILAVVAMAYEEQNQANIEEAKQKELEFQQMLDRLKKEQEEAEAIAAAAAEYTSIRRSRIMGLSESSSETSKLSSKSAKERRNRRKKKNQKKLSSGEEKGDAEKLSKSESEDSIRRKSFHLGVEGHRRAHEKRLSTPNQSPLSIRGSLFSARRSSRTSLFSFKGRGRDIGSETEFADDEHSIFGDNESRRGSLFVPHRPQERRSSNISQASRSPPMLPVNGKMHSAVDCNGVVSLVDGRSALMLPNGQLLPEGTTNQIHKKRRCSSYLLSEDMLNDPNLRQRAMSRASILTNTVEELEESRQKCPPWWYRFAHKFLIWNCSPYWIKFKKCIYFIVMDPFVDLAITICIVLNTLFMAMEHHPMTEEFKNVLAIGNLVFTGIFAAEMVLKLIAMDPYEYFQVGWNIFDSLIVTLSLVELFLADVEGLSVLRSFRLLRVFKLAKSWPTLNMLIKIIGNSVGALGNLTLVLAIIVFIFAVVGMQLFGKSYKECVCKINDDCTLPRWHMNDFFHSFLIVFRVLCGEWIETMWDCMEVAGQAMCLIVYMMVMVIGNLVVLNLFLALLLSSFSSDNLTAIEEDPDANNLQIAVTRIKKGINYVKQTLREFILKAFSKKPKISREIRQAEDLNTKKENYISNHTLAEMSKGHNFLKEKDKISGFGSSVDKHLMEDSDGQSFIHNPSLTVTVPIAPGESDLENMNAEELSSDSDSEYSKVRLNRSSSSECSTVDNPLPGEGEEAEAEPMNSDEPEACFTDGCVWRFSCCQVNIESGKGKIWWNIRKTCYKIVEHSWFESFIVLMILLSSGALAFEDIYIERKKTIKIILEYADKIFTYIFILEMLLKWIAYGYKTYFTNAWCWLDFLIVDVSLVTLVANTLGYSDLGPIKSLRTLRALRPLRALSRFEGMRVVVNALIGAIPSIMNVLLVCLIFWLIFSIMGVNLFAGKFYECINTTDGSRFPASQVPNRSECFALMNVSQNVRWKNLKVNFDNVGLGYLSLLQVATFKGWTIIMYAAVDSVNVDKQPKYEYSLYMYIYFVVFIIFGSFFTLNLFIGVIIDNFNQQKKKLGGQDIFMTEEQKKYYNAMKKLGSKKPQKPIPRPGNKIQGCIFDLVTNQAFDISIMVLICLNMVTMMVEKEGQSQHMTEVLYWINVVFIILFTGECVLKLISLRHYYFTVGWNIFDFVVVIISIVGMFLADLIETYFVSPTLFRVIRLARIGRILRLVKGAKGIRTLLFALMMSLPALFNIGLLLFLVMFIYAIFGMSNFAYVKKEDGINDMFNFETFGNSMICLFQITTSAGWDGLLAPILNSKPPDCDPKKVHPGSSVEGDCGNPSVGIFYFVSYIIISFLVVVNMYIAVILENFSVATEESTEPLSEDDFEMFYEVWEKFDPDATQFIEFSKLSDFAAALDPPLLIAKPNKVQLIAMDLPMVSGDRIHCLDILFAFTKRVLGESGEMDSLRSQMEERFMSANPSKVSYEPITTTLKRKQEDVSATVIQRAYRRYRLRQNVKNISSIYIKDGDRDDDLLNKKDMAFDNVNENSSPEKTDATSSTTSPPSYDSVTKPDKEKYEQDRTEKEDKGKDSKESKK

human Nav1.7, sequence (Q15858 other isoform, or with tags, fused parts or gaps): as above

For Cc1cc(C(=O)NCC[N+]2(C)CCCCC2)cc(-c2ccc(Oc3ccc(F)cc3)cc2)n1 [Example 1, 1-[2-({2-[4-(4-fluoro-phenoxy)-phenyl]-6-methyl-pyridine-4-carbonyl}-amino)-ethyl]-1-methyl-piperidinium], the IC50 (human Nav1.7) was 0.872 ± 0.255 µM, the Ki (hNav1.7; affinity for the inactivated state of the channel, read-out: Nav1.7 Activity EP assay Ki) was 6.03 ± 0.91 µM and the Kd (hNav1.7; dissociation constant for binding to the resting state of the channel, read-out: Nav1.7 Activity EP assay Kr) was 125 ± 23.4 µM.

In the case of Cc1cc(C(=O)NCC[N+]2(C)CCOCC2)cc(-c2ccc(Oc3ccc(F)cc3)cc2)n1 [Example 2, 4-[2-({2-[4-(4-fluoro-phenoxy)-phenyl]-6-methyl-pyridine-4-carbonyl}-amino)-ethyl]-4-methyl-morpholin-4-ium], the IC50 (human Nav1.7) is reported as 1.88 ± 0.287 µM.

Cc1cc(C(=O)N2CCC([N+]3(C)CCCC3)CC2)cc(-c2ccc(Oc3ccc(F)cc3)cc2)n1 [Example 3, 1-(1-{2-[4-(4-fluoro-phenoxy)-phenyl]-6-methyl-pyridine-4-carbonyl}-piperidin-4-yl)-1-methyl-pyrrolidinium] was tested, and the IC50 (human Nav1.7) was greater than 20 µM.

Cc1cc(C(=O)NCc2ccc([N+](C)(C)C)cc2)cc(-c2ccc(Oc3ccc(F)cc3)cc2)n1 [Example 4, {4-[({2-[4-(4-fluoro-phenoxy)-phenyl]-6-methyl-pyridine-4-carbonyl}-amino)-methyl]-phenyl}-trimethyl-ammonium] showed an IC50 (human Nav1.7) of 3.99 ± 0.289 µM.

With Cc1cc(C(=O)NCC[N+]2(C)CCCC2)cc(-c2ccc(Oc3ccc(F)cc3)cc2)n1 [Example 5, 1-[2-({2-[4-(4-fluoro-phenoxy)-phenyl]-6-methyl-pyridine-4-carbonyl}-amino)-ethyl]-1-methyl-pyrrolidinium] the IC50 (human Nav1.7) was 2.9 ± 0.375 µM.

Cc1cc(C(=O)NCC[N+](C)(C)C)cc(-c2ccc(Oc3ccc(F)cc3)cc2)n1 [Example 6, [2-({2-[4-(4-fluoro-phenoxy)-phenyl]-6-methyl-pyridine-4-carbonyl}-amino)-ethyl]-trimethyl-ammonium] gave an IC50 (human Nav1.7) of 6.52 ± 0.466 µM.

Compound Cc1cc(C(=O)N2CC[N+](C)(C)CC2)cc(-c2ccc(Oc3ccc(F)cc3)cc2)n1 [Example 7, 4-{2-[4-(4-Fluoro-phenoxy)-phenyl]-6-methyl-pyridine-4-carbonyl}-1,1-dimethyl-piperazin-1-ium] has an IC50 (human Nav1.7) greater than 20 µM.

Compound Cc1cc(C(=O)N(C)C2CC[N+](C)(C)CC2)cc(-c2ccc(Oc3ccc(F)cc3)cc2)n1 [Example 8, 4-({2-[4-(4-Fluoro-phenoxy)-phenyl]-6-methyl-pyridine-4-carbonyl}-methyl-amino)-1,1-dimethyl-piperidinium] has an IC50 (human Nav1.7) greater than 20 µM.
